ChEMBL document CHEMBL1201862, “PubChem BioAssay data set” (2004)
Active and inactive are the calls of the source.

Experiments:
[1] = THP-1 cell cytotoxicity, dose response, cytotoxicity control for non-replicating M. tuberculosis project (AID 489025); type: functional
[2] = HepG2 cell cytotoxicity, dose response, cytotoxicity control for non-replicating M. tuberculosis project (AID 489018); type: functional; conditions: Mycobacterium tuberculosis
[3] = Vero E6 cell cytotoxicity, dose response, cytotoxicity control for non-replicating M. tuberculosis project, secondary assay (AID 492998); type: functional, VeroE6; conditions: Vero C1008
[4] = molecular target: T1, Microphthalmia-associated transcription factor (Homo sapiens, UniProt O75030); experiment: reducers of TRPM1 reporter luminescence, concentration series – cell-based, SK-MEL-5, cherry-picked, set 3, MITF inhibitor project, dose response (AID 493073); type: functional;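 note: SK-MEL-5 melanoma cells with luciferase driven by the MITF target TRPM1 promoter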
T1 sequence (O75030 whole entry): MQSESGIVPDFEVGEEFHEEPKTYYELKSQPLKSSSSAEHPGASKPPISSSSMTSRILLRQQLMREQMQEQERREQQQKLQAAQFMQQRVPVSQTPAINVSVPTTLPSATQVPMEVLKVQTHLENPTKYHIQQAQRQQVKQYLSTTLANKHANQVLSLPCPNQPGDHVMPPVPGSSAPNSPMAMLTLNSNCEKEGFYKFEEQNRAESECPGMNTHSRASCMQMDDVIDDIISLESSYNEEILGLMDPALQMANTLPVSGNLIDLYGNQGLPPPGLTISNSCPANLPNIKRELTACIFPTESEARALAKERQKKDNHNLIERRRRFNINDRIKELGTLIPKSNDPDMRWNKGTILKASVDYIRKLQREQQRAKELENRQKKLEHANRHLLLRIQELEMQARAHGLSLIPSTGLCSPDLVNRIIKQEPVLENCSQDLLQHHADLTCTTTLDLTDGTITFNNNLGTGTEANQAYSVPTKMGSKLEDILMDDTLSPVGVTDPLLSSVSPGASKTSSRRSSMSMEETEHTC

[5] = cells; type: functional
[6] = molecular target: T2, G-protein coupled receptor 55 (Homo sapiens, UniProt Q9Y2T6); experiment: inhibition of LPI-stimulated GPR55 beta-arrestin translocation – imaging, U2OS, beta-arrestin-GFP, LPI agonist, primary screen (AID 2013); type: functional;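 note: antagonist potency measured as reduced agonist-driven arrestin aggregation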
T2 sequence (Q9Y2T6 whole entry): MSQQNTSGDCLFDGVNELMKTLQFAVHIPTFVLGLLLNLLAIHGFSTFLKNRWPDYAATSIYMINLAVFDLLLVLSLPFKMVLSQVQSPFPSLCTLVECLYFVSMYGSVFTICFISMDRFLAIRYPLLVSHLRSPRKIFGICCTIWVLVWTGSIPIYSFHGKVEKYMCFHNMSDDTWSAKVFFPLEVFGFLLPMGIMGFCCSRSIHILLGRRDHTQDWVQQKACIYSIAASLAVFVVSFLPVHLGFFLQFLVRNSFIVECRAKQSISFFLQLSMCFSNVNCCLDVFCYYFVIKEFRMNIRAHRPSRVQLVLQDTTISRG

[7] = molecular target: T3, Cannabinoid receptor 1 (Homo sapiens, UniProt P21554); experiment: SAR analysis of antagonists of the Cannabinoid Receptor 1 using an Image-Based Assay - Set 2. [Related pubchem assays (depositor defined):AID2013, AID2026]; type: functional
T3 sequence (P21554 whole entry): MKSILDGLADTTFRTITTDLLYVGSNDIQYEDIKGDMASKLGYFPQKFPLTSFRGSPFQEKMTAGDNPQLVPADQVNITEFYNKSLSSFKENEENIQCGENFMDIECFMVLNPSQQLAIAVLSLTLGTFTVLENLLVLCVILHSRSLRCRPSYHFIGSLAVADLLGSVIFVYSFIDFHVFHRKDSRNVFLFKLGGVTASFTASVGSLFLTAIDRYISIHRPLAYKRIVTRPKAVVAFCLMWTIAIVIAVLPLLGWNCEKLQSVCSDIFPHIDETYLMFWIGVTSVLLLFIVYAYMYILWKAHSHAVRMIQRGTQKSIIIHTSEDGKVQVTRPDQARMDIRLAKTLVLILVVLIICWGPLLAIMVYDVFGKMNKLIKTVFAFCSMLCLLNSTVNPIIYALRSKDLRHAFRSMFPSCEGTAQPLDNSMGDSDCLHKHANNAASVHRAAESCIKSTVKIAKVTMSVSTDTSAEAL

[8] = molecular target: T4, G-protein coupled receptor 35 (Homo sapiens, UniProt Q9HC97); experiment: SAR analysis of Agonists of the GPR35 Receptor using an Image-Based Assay - Set 2. [Related pubchem assays (depositor defined):AID2013, AID2026]; type: functional
T4 sequence (Q9HC97 whole entry): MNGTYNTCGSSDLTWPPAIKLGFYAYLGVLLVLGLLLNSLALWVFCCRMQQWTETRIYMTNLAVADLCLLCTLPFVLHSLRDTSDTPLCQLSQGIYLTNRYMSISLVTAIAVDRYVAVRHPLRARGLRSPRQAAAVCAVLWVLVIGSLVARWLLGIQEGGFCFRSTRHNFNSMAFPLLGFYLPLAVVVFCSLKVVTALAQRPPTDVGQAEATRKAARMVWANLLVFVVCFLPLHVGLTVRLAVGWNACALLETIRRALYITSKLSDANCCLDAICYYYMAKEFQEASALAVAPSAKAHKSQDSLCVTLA

[9] = molecular target: T5, Cannabinoid receptor 2 (Homo sapiens, UniProt P34972); experiment: SAR analysis of antagonists of the Cannabinoid Receptor 2 using an Image-Based Assay. [Related pubchem assays (depositor defined):AID2013, AID2026]; type: functional
T5 sequence (P34972 whole entry): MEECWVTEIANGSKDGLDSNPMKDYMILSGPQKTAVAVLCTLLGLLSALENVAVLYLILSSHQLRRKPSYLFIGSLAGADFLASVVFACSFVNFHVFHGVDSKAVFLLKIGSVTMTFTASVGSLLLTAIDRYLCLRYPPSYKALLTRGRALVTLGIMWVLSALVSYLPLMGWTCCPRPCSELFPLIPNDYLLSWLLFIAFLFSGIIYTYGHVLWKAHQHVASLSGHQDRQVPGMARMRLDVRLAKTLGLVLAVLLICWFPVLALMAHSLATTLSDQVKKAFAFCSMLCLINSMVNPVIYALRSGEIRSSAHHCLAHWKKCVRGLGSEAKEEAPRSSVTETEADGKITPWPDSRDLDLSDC

[10] = molecular target: T3, Cannabinoid receptor 1; experiment: SAR analysis of agonists of the Cannabinoid Receptor 1 using an Image-Based Assay - Set 2. [Related pubchem assays (depositor defined):AID2013, AID2026]; type: functional
[11] = molecular target: T4, G-protein coupled receptor 35; experiment: SAR analysis of Antagonists of the GPR35 Receptor using an Image-Based Assay - Set 3. [Related pubchem assays (depositor defined):AID2013, AID2026]; type: functional
[12] = molecular target: T2, G-protein coupled receptor 55; experiment: blockade of LPI-induced GPR55 arrestin translocation – imaging, U2OS, beta-arrestin-GFP, LPI agonist, set 2, SAR follow-up (AID 2820); type: functional
[13] = molecular target: T5, Cannabinoid receptor 2; experiment: SAR analysis of agonists of the Cannabinoid Receptor 2 using an Image-Based Assay. [Related pubchem assays (depositor defined):AID2013, AID2026]; type: functional
[14] = molecular target: T6, Corticotropin-releasing factor receptor 2/Corticotropin-releasing factor-binding protein (Homo sapiens, UniProt P24387+Q13324); experiment: Dose Response confirmation of uHTS hits for small molecule antagonists of the CRF-binding protein and CRF-R2 receptor complex.; type: functional; conditions: read-out: IC50_Mean
T6 sequence (Q13324 whole entry): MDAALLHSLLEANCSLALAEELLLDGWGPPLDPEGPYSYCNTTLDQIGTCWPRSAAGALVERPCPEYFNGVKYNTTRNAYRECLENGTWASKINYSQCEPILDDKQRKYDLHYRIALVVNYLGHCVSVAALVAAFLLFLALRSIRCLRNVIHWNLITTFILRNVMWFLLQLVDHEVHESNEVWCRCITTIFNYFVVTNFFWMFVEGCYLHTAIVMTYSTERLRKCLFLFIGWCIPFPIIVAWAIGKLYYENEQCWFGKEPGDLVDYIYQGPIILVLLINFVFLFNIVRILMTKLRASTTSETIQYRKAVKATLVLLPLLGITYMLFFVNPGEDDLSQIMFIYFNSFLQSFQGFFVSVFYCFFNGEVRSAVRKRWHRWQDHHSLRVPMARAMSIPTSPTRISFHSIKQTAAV
T6 sequence (P24387 whole entry): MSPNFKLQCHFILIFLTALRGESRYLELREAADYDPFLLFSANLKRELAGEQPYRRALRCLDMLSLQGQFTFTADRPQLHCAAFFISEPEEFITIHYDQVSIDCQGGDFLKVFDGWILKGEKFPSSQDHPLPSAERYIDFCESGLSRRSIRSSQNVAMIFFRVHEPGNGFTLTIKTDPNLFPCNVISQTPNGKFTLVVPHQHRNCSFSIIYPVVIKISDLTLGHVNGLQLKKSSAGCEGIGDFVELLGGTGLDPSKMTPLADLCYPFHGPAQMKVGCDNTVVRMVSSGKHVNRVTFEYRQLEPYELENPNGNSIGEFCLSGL

[15] = molecular target: T6, Corticotropin-releasing factor receptor 2/Corticotropin-releasing factor-binding protein; experiment: activators of CRF receptor 2 with binding protein – uHTS hits, confirmation (AID 602473); type: functional; conditions: read-out: EC50_Mean
[16] = cells; type: functional, cell-based
[17] = molecular target: Luciferin 4-monooxygenase (Photinus pyralis, UniProt P08659); experiment: inhibition of purified Photinus pyralis luciferase – biochemical, luminescence, dose response (AID 1891)
Luciferin 4-monooxygenase, sequence (P08659 whole entry): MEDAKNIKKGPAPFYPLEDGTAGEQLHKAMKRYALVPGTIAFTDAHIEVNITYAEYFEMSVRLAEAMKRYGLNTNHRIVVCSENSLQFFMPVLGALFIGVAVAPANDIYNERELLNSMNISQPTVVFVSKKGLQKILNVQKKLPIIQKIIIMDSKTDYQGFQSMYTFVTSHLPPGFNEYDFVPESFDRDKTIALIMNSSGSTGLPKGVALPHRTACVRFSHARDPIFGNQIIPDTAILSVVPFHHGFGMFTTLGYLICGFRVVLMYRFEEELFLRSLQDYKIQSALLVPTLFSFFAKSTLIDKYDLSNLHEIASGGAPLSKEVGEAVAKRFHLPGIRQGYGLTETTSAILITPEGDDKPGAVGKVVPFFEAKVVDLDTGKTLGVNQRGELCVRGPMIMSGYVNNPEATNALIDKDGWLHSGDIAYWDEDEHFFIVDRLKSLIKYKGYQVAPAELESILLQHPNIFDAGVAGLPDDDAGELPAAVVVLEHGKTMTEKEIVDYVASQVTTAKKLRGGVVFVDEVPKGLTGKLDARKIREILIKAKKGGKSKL

[18] = Luminescence Cell-Based Dose Confirmation HTS to Identify Inhibitors of Platelet Dense Granule Release. [Related pubchem assays: 1663 (Primary HTS), 1678 (Summary of Project)]; type: functional
[19] = cells; type: functional, cell-based; remark: listed apart in the source
[20] = tested on: INS1; experiment: INS-1E survival protection against cytokine death – cell-based, luminescence, retest, dose response (AID 449756); type: functional; conditions: Rattus norvegicus;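 note: cell death triggered by IL-1 beta plus TNF-alpha plus IFN-gamma mixture; protective hits raise ATP signal compared with cytokine alone wells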

SMILES | CC50 [1] | CC50 [2] | CC50 [3] | AC50 [4] | IC50 [5] | IC50 [6] | IC50 [7] | EC50 [8] | IC50 [9] | EC50 [10] | IC50 [11] | IC50 [12] | EC50 [13] | IC50 [14] | EC50 [15] | EC50 [16] | EC50 [17] | EC50 [18] | EC50 [19] | AC50 [20]
Cc1ccc(NC(=O)c2ccc([N+](=O)[O-])o2)cc1S(=O)(=O)N1CCOCC1 | 6.1 µM (active) | 9.48 µM (active) | 6.5 µM (active) | 11.4 µM (active) | 18.4 µM (active) |  |  |  |  |  |  |  |  |  |  |  |  |  |  | 
COC(=O)C1=C(N)c2c(F)cccc2C1(C#N)c1ccccc1 (stereo not drawn) |  |  |  |  |  | 2.34 µM (active) | > 32 µM (inactive) | > 32 µM (inactive) | > 32 µM (inactive) | > 32 µM (inactive) | > 32 µM (inactive) | 0.928 µM (active) | > 32 µM (inactive) | > 47.1 µM (inactive) | > 53 µM (inactive) |  |  |  |  | 
COc1cccc(/C=N/NC(=O)c2ccoc2C)c1O | 4.17 µM (active) | 6.69 µM (active) | 9.35 µM (active) |  |  |  |  |  |  |  |  |  |  |  |  | 82.2 µM (active) | 4.56 µM (active) | 2.09 µM (active) | 7.29 µM (active) | 3.85 µM (active)
